According to article PMC8718112, “Functional independence of endogenous μ- and δ-opioid receptors co-expressed in cholinergic interneurons” (eLife, 2021):

Target: T1, δ-opioid receptor (DOR) (Mus musculus, UniProt P32300)
T1 construct: gene Oprd1; endogenous receptor on cholinergic interneurons in mouse brain slices
Assay: cell-attached recording of firing inhibition reversed by SDM25N; internalization of labeled receptors
Format: cell-based

T1 sequence (P32300 whole entry): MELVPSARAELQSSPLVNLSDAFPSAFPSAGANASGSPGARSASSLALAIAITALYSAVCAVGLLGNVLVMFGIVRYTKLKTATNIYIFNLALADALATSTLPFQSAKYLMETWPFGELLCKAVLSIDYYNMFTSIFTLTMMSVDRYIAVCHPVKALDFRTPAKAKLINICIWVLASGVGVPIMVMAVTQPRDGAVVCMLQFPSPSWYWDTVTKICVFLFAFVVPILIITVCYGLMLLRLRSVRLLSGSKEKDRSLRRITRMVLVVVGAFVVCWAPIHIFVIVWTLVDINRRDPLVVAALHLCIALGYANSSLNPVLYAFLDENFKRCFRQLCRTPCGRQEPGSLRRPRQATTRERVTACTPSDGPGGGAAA

## CC(C)[C@H](NC(=O)[C@H](CCC(=O)O)NC(=O)[C@H](Cc1ccccc1)NC(=O)[C@@H](C)NC(=O)[C@@H](N)Cc1ccc(O)cc1)C(=O)N[C@H](C(=O)NCC(N)=O)C(C)C [deltorphin II]
  inhibition at 1 µM: 96.6 ± 2.7%
